Experimental data taken from publication PMC4303146, “Investigation of cyanine dyes for in vivo optical imaging of altered mitochondrial membrane potential in tumors” (Cancer Medicine, 2014).

How the values were obtained:
[1] = parameters: method as in PMID 21469142; conditions: cited from earlier work
[2] = target: T1, albumin-binding site I (warfarin-binding site) (Bos taurus, UniProt P02769); experiment: Protein-binding assay with competitive inhibitors in 5% FBS; assay type: in vitro ADME, bovine
T1 construct: incubated for 30 min in PBS (pH 7.4) containing 5% DMSO and 5% FBS; from tissue; host or cells: fetal bovine serum (5% in PBS)
T1 sequence (P02769 25-607): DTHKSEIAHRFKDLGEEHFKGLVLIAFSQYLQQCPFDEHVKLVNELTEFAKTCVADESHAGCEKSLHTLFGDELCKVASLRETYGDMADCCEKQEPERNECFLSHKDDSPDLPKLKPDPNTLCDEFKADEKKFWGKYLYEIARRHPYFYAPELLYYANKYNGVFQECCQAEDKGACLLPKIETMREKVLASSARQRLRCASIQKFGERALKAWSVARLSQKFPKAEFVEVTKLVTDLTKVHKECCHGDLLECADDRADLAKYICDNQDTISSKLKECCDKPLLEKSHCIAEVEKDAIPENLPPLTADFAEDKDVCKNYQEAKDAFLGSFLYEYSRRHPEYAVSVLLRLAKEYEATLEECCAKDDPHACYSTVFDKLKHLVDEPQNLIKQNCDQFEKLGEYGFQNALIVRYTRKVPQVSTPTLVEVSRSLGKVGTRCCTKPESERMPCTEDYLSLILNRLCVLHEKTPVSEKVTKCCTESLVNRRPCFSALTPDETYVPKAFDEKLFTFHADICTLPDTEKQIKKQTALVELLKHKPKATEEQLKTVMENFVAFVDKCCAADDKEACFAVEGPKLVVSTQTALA
Procedure: A protein-binding assay was conducted as reported previously. Briefly, warfarin, ibuprofen, digoxin, and quinidine were used as competitive inhibitors of albumin-binding sites I, II, III, and […], respectively. The inhibitors (0 and 189 μmol/L) were incubated for 30 min in PBS (pH 7.4) containing 5% DMSO and 5% FBS at room temperature. Immediately after the addition of the IC7-1 derivative (1 μmol/L final concentration), the fluorescence intensity was measured following the excitation at 823 nm and the emission from 840 to 900 nm. The normalized intensity (%) was calculated as a percentage of fluorescence intensity obtained from an inhibitor untreated sample.

HeLa cells [3] = experiment: Cellular localization study (fluorescence microscopy with NAO mitochondria marker); assay type: cell-based, human; conditions: 1 μmol/L, 60 min, NAO 100 nmol/L
Procedure: HeLa cells (3 × 10^5 cells) were cultured in a poly-L-lysine coated glass bottom dish for 24 h at 37°C before use. Cells were washed twice with phosphate-buffered saline (PBS) and then incubated with the IC7-1 derivative dissolved in dimethyl sulfoxide (DMSO) (1 μmol/L final concentration) in DMEM supplemented with 5% FBS and 1% penicillin and streptomycin for 60 min. To determine the dye localization, mitochondria were labeled with NAO (100 nmol/L final concentration) for 20 min before completion of the incubation with IC7-1 derivative. Next, the cells were washed twice each with DMEM and PBS. Cells were viewed with a fluorescence microscope under a 100× oil-immersion objective lens. MetaMorph® software (Molecular Devices, LLC, Sunnyvale, CA) was used for imaging analysis.

HeLa cell xenograft [4] = experiment: In vivo blocking study with uncoupler CCCP; parameters: species or system mice; conditions: intratumoral CCCP 0.25 mg/kg, imaged 1 and 3 h
Procedure: (§1) Animal experiments were conducted in accordance with institutional guidelines and were approved by the Kyoto University Animal Care Committee. Female nude mice (BALB/c nu/nu 4-weeks old), supplied by Japan SLC, Inc. (Shizuoka, Japan), were housed under a 12 h light/12 h dark cycle and were given free access to food (D10001) and water. HeLa cells (2 × 10^6 cells in 100 μL of PBS) were subcutaneously inoculated into the right hind legs of mice. Fourteen days after implantation, mice were used for the imaging study.
In the in vivo blocking study using an uncoupler, IC7-1-Bu (10 nmol, 100 μL) was administered to tumor-bearing mice via the tail vein immediately after intratumoral injection of CCCP (2.5 mL/kg, 0.25 mg/kg). Mice were imaged 1 and 3 h after administration of the imaging agent using the same method as described above.

[5] = Photophysical properties (fluorescence spectroscopy, quantum yield); assay type: physicochemical
Procedure: IC7-1 derivatives were dissolved in chloroform or 5% FBS to give a concentration of 1 μmol/L for fluorescence spectroscopy analysis. Excitation spectra were measured following the emission at 850 nm, and emission spectra were measured following excitation at 823 nm. Quantum yields were determined using a Fluorolog-3 spectrofluorometer equipped with an integrating sphere.

HeLa cells [6] = experiment: Cellular uptake study with uncoupler CCCP; assay type: cell-based, human; conditions: dye 1 μmol/L, 60 min, CCCP 0-25 μmol/L
Procedure: A cellular uptake study was conducted as reported previously. Briefly, the buffer solution (pH 7.4) for the cellular uptake study was composed of NaCl ([…]), KCl (5.4 mmol/L), CaCl2 (1.2 mmol/L), MgSO4 (0.8 mmol/L), NaH2PO4 (0.8 mmol/L), dextrose (5.6 mmol/L), and 4-(2-hydroxyethyl)-1-piperazineethanesulfonic acid) (5 mmol/L). HeLa cells (1 × 10^6 cells/mL buffer solution) were incubated with carbonyl […] m-chlorophenylhydrazone (CCCP; 0, 0.1, 0.25, 0.5, 0.75, 1, 2.5, 5, 10, and 25 μmol/L) for 5 min at 37°C in 1.5 mL microtubes, followed by the addition of the IC7-1 derivative (1 μmol/L final concentration). After a 60-min incubation with the IC7-1 derivative, the cells were washed twice and resuspended with buffer solution. The fluorescence intensity was measured following the excitation at 823 nm and the emission from 840 to 900 nm, and the normalized intensity (%) was calculated as a percentage of fluorescence intensity obtained with CCCP untreated (0 μmol/L) cells.
The buffer solution (pH 7.4) for the cellular uptake study was composed of NaCl (145 mM), KCl (5.4 mM), CaCl2 (1.2 mM), MgSO4 (0.8 mM), NaH2PO4 (0.8 mM), dextrose (5.6 mM), and HEPES (5 mM). The HeLa cells (1 x 10^6 cells / ml buffer solution) were incubated with an uncoupler (CCCP; 0, 0.1, 0.25, 0.5, 0.75, 1, 2.5, 5, 10, and 25 µM) for 5 min at 37 °C in 1.5 mL microtubes, followed by the addition of IR-780 or IC7-1-Bu (1 µM final concentration) After a 60 min incubation with the dyes, the cells were washed twice and resuspended with buffer solution. Fluorescence intensity was measured following the excitation at 763 nm and the emission from 780 to 880 nm for IR-780, and the excitation at 823 nm and the emission from 840 to 900 nm for IC7-1-Bu. The normalized intensity (%) was calculated as a percentage of fluorescence intensity obtained with CCCP untreated (0 µM) cells.

BSA = BSA (Bos taurus, UniProt P02769); experiment: Association constants of IC7-1 derivatives to albumin (fluorimetric titration); assay type: binding, bovine; conditions: dye 1 µM, BSA 0-1.0 µM, 30 min; read-out: Ka, association constant of dye-albumin complex (converted)
BSA, sequence (P02769 25-607): as above
Procedure: Binding studies of IC7-1 derivatives to albumin were conducted as reported previously (Beckford G et al. The solvatochromic effects of side chain substitution on the binding interaction of novel tricarbocyanine dyes with human serum albumin. Talanta 2012;92: 45-52). Briefly, IC7-1 derivatives (1 µM final concentration) were incubated with BSA (0, 0.4, 0.6, 0.8, and 1.0 µM) for 30 min to equilibrate. The fluorescence intensity was measured following the excitation at 823 nm and the emission from 840 to 900 nm. The interaction between dye D and albumin A can be expressed by Eq. 1:
The association constant for the dye-albumin complex formation can be expressed by Eq. 2:
Then, the association constant Ka of the dye-albumin complex was calculated from the data for the fluorimetric titration of the dye with albumin using Eq. 3:
1/ΔF = 1/k[D] + (1/(k[D]Ka))·(1/[A]) (3)
where k is a constant depending on the instrumentation and quantum efficiency of the process.
Therefore, a plot of the reciprocal of ΔF versus the reciprocal of albumin concentration gives a straight line. The association constant was calculated by dividing the intercept by the slope of the line.

HeLa cell xenograft [7] = experiment: In vivo imaging study in HeLa cell xenograft mice
Procedure: Animal experiments were conducted in accordance with institutional guidelines and were approved by the Kyoto University Animal Care Committee. […] HeLa cells (2 × 10^6 cells in 100 μL of PBS) were subcutaneously inoculated into the right hind legs of mice. Fourteen days after implantation, mice were used for the imaging study.
Clairvivo® OPT measurement and display software ver. 2.6.0.0. (SHIMADZU Co.) was used for imaging analysis.
Exposure time was 5s for the scan at 3 h, and 3s for the other scans. Clairvivo® OPT measurement and display software ver. 2.6.0.0. (SHIMADZU Co., Kyoto, Japan) was used for imaging analysis.

HeLa cell xenograft [8] = experiment: In vivo blocking study with protein-binding inhibitor warfarin; parameters: species or system mice
Procedure: as §1
An in vivo blocking study using a protein-binding inhibitor was conducted as reported previously. Briefly, IC7-1-Bu (10 nmol, 100 μL) and warfarin (5.5 μmol, 100 μL) were simultaneously administered to mice via the tail vein, and the mice were imaged using the same method as described above.

CC1(C)C(/C=C/C=C/C=C/C=C2\N(CCCCS(=O)(=O)O)c3ccc4ccccc4c3C2(C)C)=[N+](CCCCS(=O)(=O)[O-])c2ccc3ccccc3c21 [ICG, indocyanine green]
Clearance and tumor accumulation after i.v. administration [1]: rapid clearance through the liver into feces with low accumulation in tumors

CCCCN1/C(=C/C=C2\CCCC(/C=C/C3=[N+](CCCC)c4ccc5ccccc5c4C3(C)C)=C2Cl)C(C)(C)c2c1ccc1ccccc21 [IC7-1-Bu, 3-Butyl-2-(2-{3-[2-(3-butyl-1,1-dimethyl-1,3-dihydro-benz[e]indol-2-ylidene)-ethylidene]-2-chloro-cyclohex-1-enyl}-vinyl)-1,1-dimethyl-1H-benz[e]indolium]
Absorbance peak and fluorescence in 5% FBS versus 0% FBS solution ([2]; 5% FBS vs 0% FBS): significantly higher in 5% FBS solution than in 0% FBS solution
Normalized fluorescence intensity with warfarin (albumin site I inhibitor) ([2]; 5% FBS, inhibitor 189 μmol/L, dye 1 μmol/L): specifically bound to albumin
Absorbance peak ([2]; FBS solution): 836 nm
Subcellular localization of NIR fluorescence (HeLa cells [3]): colocalized fluorescence with NAO
Fluorescence intensity at the tumor after CCCP pretreatment (HeLa cell xenograft [4]): significantly decreased by CCCP pretreatment
Φ, quantum yield ([5]; 5% FBS): 0.04
ε, extinction coefficient ([5]; 5% FBS): 130000 mol/L/cm
emmax, maximum emission wavelength ([5]; 5% FBS, 1 μmol/L): 849 nm
exmax, maximum excitation wavelength ([5]; 5% FBS, 1 μmol/L): 823 nm
Φ, quantum yield ([5]; CHCl3): 0.06
ε, extinction coefficient ([5]; CHCl3): 330000 mol/L/cm
emmax, maximum emission wavelength ([5]; CHCl3, 1 μmol/L): 845 nm
exmax, maximum excitation wavelength ([5]; CHCl3, 1 μmol/L): 823 nm
Normalized cellular fluorescence intensity under CCCP treatment (HeLa cells [6]): reduced cellular fluorescence from treatment with a low CCCP concentration
Kd (BSA): 476 nM
Retention of tumor fluorescence after i.v. administration (HeLa cell xenograft [7]; 10 nmol i.v.): 72 h
Tumor fluorescence intensity group from ROI analysis (HeLa cell xenograft [7]; 10 nmol i.v.): high intensity group
Fluorescence intensity at the tumor region (HeLa cell xenograft [7]; 10 nmol i.v., 24, 48 and 72 h): strong fluorescence intensity at the tumor region up to 72 h
Tumor depiction in fluorescence images (HeLa cell xenograft [7]; 10 nmol i.v., 24, 48 and 72 h): Tumors were clearly depicted
Fluorescence intensity after co-administration of warfarin (HeLa cell xenograft [8]; IC7-1-Bu 10 nmol + warfarin 5.5 μmol i.v., 24-72 h): diminished throughout the body
Tumor to neck fluorescence ratio (HeLa cell xenograft [8]; warfarin (+), after 1 day): 2.36 ± 0.09
Tumor to neck fluorescence ratio (HeLa cell xenograft [8]; warfarin (+), after 2 day): 2.49 ± 0.10
Tumor to neck fluorescence ratio (HeLa cell xenograft [8]; warfarin (+), after 3 day): 2.46 ± 0.09
Tumor to neck fluorescence ratio (HeLa cell xenograft [8]; warfarin (−), after 1 day): 1.94 ± 0.11
Tumor to neck fluorescence ratio (HeLa cell xenograft [8]; warfarin (−), after 2 day): 2.02 ± 0.15
Tumor to neck fluorescence ratio (HeLa cell xenograft [8]; warfarin (−), after 3 day): 2.07 ± 0.48
